{"source": "patent US20040116369A1", "about": "“Interferon regulatory factor-1/human estrogen receptor fusion protein and its use for treating carcinomas” (priority 2001, published 2004)", "key": {"HepaIRF-1hER cell clones": {"tested_on": "HepaIRF-1hER cell clones", "assay": "IFN secretion measured by antiviral assay in culture supernatant", "type": "cell-based, murine", "conditions": "+E2 1 μM, five days, normalized to 10^6 cells", "procedure": "For activation of IRF-1 in the IRF-1-hER fusion protein, E2 (SERVA, Frankfurt, Germany) was added to the cell culture medium to reach a final concentration of 1 μM.\n(§1) IFN-Test. The interferon concentrations in the cell culture supernatants were determined by an antiviral assay imploying mouse L929 cells (43). To confirm the specificity of the antiviral activity a neutralizing monoclonal antibody directed against mouse IFN-β was added to the supernatant before addition to the test cells."}, "NIH3T3TA/IH/MR cells [1]": {"tested_on": "NIH3T3TA/IH/MR cells", "assay": "Proliferation (metabolic activity, WST)", "type": "cell-based, murine", "conditions": "+E2 1 μM, seven days after treatment", "procedure": "(§2) Measurement of cell growth. For determination of cell growth 2×10^3 cells/well were seeded into microtiter plates and serial dilutions (1:1) were performed allowing several independent measurement points. Cells were treated with the indicated concentration of β-estradiol. Cell growth was determined using the WST kit (Roche Diagnostics, Mannheim, Germany) following the manufacturer's instruction. Mean values of triplicates resulting in less than 10% deviation were plotted.\nThe effects of IRF-1 in oncogenically transformed NIH3T3 cells were examined. NIH3T3 cells conditionally expressing the oncogenes c-myc and c-Ha-ras were used. Both oncogenes were bicistrinically expressed under the control of the tetracycline regulatable promoter (Kröger, Dissertation, Universität Braunschweig, 1999). The cells were stably transfected with the IRF-1-hER fusion protein encoding construct. This cell line allows the investigation of IRF-1 effects in the non-transformed NIH3T3 cells (presence of Doxycycline) and in the transformed state of the cells (absense of Doxycycline). The antitumoral activity of IRF-1 in vitro was investigated: Influence on proliferation, soft agar growth and IFN induction with and without IRF-1hER activation by E2 treatment were measured. This was done in the non-transformed as well as in the transformed state. E2 and Doxycyline were added for five days."}, "NIH3T3TA/IH/MR cells [2]": {"tested_on": "NIH3T3TA/IH/MR cells", "assay": "Anchorage independent growth in soft agar", "type": "cell-based, murine", "conditions": "+E2 1 μM, two weeks after treatment", "procedure": "Assay for anchorage independent growth. Anchorage-independent growth capability was determined by assessing the colony-formation efficiency of cells suspended in soft agar. 1×10^3 cells were seeded in 50 μl of 0.3% overlay agar in microtiter plates coated with 50 μl 0.6% underlay agar. The induction medium was added to the top (50 μl/well). […] To determine wether IRF-1 reverses the transformed phenotype of the cells to the formation of colonies in soft agar was assayed. […] In contrast, in the absence of Doxycycline (transformed status) the cells grew well and formed soft agar clones. The ability of soft agar growth was completely abolished by the activation of IRF-1 by E2 gift (Table 3)."}, "NIH3T3TA/IH/MR cells [3]": {"tested_on": "NIH3T3TA/IH/MR cells", "assay": "IFN secretion by antiviral assay", "type": "cell-based, murine", "conditions": "+E2 1 μM, five days, normalized to 10^6 cells", "procedure": "as §1\nIFN secretion as determined by an antiviral assay was taken as a measure of IRF-1 activity."}, "Hepa1-6 (wt) tumors": {"tested_on": "Hepa1-6 (wt) tumors", "assay": "Subcutaneous tumor growth in syngeneic C57L/J mice", "type": "in vivo", "conditions": "1.5 mg E2 every two days i.p.", "source_text": "(§3) Tumor model. The Hepa1-6 tumor model in C57L/J mice (44) was chosen because they show reliable growth in the syngeneic host. Hepa1-6 cells are a derivative of the BW7756 mouse hepatoma that arose in a C57L mouse. MHC class I and II expression is identical between C57L and C57L/J mice and Hepa1-6 HCCs are characterized by AFP expression. […] After 6 days, tumors were visible and reached a size of about 2000 mm^3 after a mean time of 18 days. This tumor size was used as endpoint in the invention, and mice were subsequently sacrificed. Tumor incidence and volume were assessed every two days using calipers. Data are presented as mean volume±SE.\n(§4) Tumor protection studies. C57L/J mice were inoculated with 1×10^7 Hepa1-6 (groups 1 and 2) or HepaIRF-1hER (groups 3 and 4) cells into the right flank. Group 5 was not inoculated with any tumor. The different groups were treated as follows:\n(§5) The efficacy of IRF-1 activation as a therapeutic vaccine against tumors was examined. Mice were injected subcutaneosly with HepaIRF-1hER cells in the right flank and wt Hepa1-6 cells into the left flank. The animals were either treated with 1.5 mg E2 every two days or were left untreated. Activation of IRF-1-hER abolished tumor growth of HepaIRF-1hER cells on the right flank of the mice."}, "HepaIRF-1hER tumors": {"tested_on": "HepaIRF-1hER tumors", "assay": "Subcutaneous tumor growth in syngeneic C57L/J mice", "type": "in vivo", "source_text": "as §3, §4, §5"}, "[4]": {"tested_on": "Hepa1-6 cell clones expressing IRF-1hER (c4, c9, c22)", "assay": "Cell growth (WST metabolic activity)", "type": "cell-based, murine", "conditions": "Mus musculus, Hepa1-6, 168 h, 7 days after IRF-1 activation, 1 μM β-estradiol, read-out: extent of proliferation inhibition", "procedure": "as §2"}, "NIH3T3TA/MR/IH cells": {"tested_on": "NIH3T3TA/MR/IH cells", "assay": "Tumor growth of transformed cells in nude mice", "type": "in vivo, NMRI nude mice", "conditions": "1.5 mg E2 every two days i.p.; 10^6 cells s.c.", "procedure": "Male 6-8-week old NMRI nude mice (Harlan Winkelmann, Borchen, Germany) were maintained in the SPF unit of the animal facility of German Research Center for Biotechnology. Mice were divided into two experimental groups, five mice for each group. 1×10^6 cells in 0.2 ml PBS NIH3T3TA/MR/IH cells were injected subcutaneously into the flanks of the mice. The groups were treated as follows: group 1: no treatment (n=5); group 2: 1.5 mg of E2 every two days i.p. (n=4). Tumor volumes were measured and recorded three times a week using calipers. Data are presented as mean value of tumor volume."}}}
{"smiles": "C[C@]12CC[C@@H]3c4ccc(O)cc4CC[C@H]3[C@@H]1CC[C@@H]2O", "note": "[E2, β-estradiol]", "values": [{"measurement": "IFN secretion", "setting": "HepaIRF-1hER cell clones; clone c4", "value": 125, "unit": "IU/ml"}, {"measurement": "IFN secretion", "setting": "HepaIRF-1hER cell clones; clone c9", "value": 125, "unit": "IU/ml"}, {"measurement": "IFN secretion", "setting": "HepaIRF-1hER cell clones; clone c22", "value": 180, "unit": "IU/ml"}, {"measurement": "Proliferation", "setting": "NIH3T3TA/IH/MR cells [1]; +DOX 2 μg/ml (non-transformed)", "value": 60, "unit": "%"}, {"measurement": "Proliferation", "setting": "NIH3T3TA/IH/MR cells [1]; −Dox (transformed)", "value": 65, "unit": "%"}, {"measurement": "Soft agar growth (number of clones)", "setting": "NIH3T3TA/IH/MR cells [2]; +DOX 2 μg/ml (non-transformed)", "value": 0}, {"measurement": "Soft agar growth (number of clones)", "setting": "NIH3T3TA/IH/MR cells [2]; −Dox (transformed)", "value": 0}, {"measurement": "IFN secretion", "setting": "NIH3T3TA/IH/MR cells [3]; +DOX 2 μg/ml", "value": 750, "unit": "IU/ml"}, {"measurement": "IFN secretion", "setting": "NIH3T3TA/IH/MR cells [3]; −Dox", "value": 750, "unit": "IU/ml"}, {"measurement": "Tumor volume (mean ± SD)", "setting": "Hepa1-6 (wt) tumors; Hepa1-6 (wt) 5 × 10^6 cells s.c.", "value": "1630 ± 596", "unit": "mm^3"}, {"measurement": "Tumor volume (mean ± SD)", "setting": "Hepa1-6 (wt) tumors; Hepa1-6 tumor on left flank of mice also carrying HepaIH on right flank", "value": "179 ± 288", "unit": "mm^3"}, {"measurement": "Tumor volume (mean ± SD)", "setting": "HepaIRF-1hER tumors; HepaIH 5 × 10^6 cells s.c., 1.5 mg E2 every two days i.p.", "value": "22,4 ± 179 mm^3"}, {"measurement": "mice protected against challenge", "setting": "HepaIRF-1hER tumors; HepaIRF-1hER tumor, E2 treatment", "value": 75, "unit": "%"}, {"measurement": "tumor size after 40 days", "setting": "HepaIRF-1hER tumors; the two E2 treated animals that developed tumors", "value": 450, "unit": "mm^3"}, {"measurement": "inhibition at 1 µM", "setting": "[4]", "value": "40 to 80", "unit": "%"}, {"measurement": "mice that developed no tumors", "setting": "NIH3T3TA/MR/IH cells", "value": 40, "unit": "%"}]}
